Series [1] relates to basal cell carcinoma and pre-cancerous inflammation. The series can be described thus: Example 1: treatment of a patient with basal cell carcinoma and pre-cancerous inflammation. The class given is in vivo, human. The text has this: The treatment procedure comprises application of each of the above described formulations in the order of cleansing with the water broth, activating with both the water broth and the activating serum, treatment with the mask formulation that entraps active ingredients against the affected skin and finally sealing and protecting the treated area with the cream. The affected area is first washed using the water broth. Activating serum is then applied to the skin. The water broth solution is put into the dispensing cup of aerosol generating device such as sold under the brand name Dermoxyzone Nebulizing Nanoparticle Infuser™, which infuses the nanoparticle sizes of the ozonated water broth into the epidermal layer. Absorption is optimized due to the activating serum's ability to pull moisture into the epidermis in greater amounts than could be absorbed without application of the activating serum. The Gel is not completely removed before applying the mask. The gel is wiped down with a cotton pad, leaving a residue on the skin. The mask is then applied over the residual gel covered area of the skin. The mixing serum and the powdered mask base are blended in a ratio of one to one, by volume, to form the mask just prior to use. For the treatment of one cheek for example, one tablespoon each of the powder and mixing serum are typically used. […]

Series [2] in a line: Ozone output of ozonized formulations tested with a commercial ozone sensor. Conditions: added to seaweed-containing ozonized formulations. The class given is physicochemical. On the procedure:
Cholecalciferol, vitamin D3, also known as the sunshine vitamin, aids in tissue regeneration and healing. […] For this reason it was determined that a certain amount of vitamin D3 increases the effectiveness of formulations containing seaweeds, especially those containing callophycus serratus.
The mask is used after the water broth cleansing and activating serum activation steps. As for the serum the inventor has observed a synergistic efficacy by using the combination of treatments. Also as for the serum the exact mechanism is yet to be understood, but the mask provides yet a third matrix for the preparation, storage and application of the active ingredients. As for the formulations previously described the mask is prepared from a selection of ingredients form each of the defined categories of teas, Algaes and seaweeds, herbal plant extracts and oils, flower extracts, fruit extracts, vegetable extracts, butters and oils, and finally other additives as indicated in the formulation lists below. […] The mask is prepared from freeze dried and powdered extracts of the indicated ingredients. The water broth described above is also an ingredient in the mask. The other ingredients are added as preservatives, solvents, and viscosity control agents and are not part of the active ingredients, but rather are a delivery system. […]

Series [3] relates to chronic rosacea. The series can be described thus: Example 2: treatment of a patient with chronic rosacea. Particulars: person, topical. The class given is in vivo, human. The text has this:
A person suffered from chronic rosacea. Medical practitioner proscribed regular use of a steroidal cortisone anti-inflammatory cream. […] Patient was concerned about side effects of long term cortisone application. […] Improvement however could not be maintained even with regular treatment several times weekly.

SMILES strings stand for the structures.

In the case of `N#N` [liquid nitrogen], the “adverse effect of treatment” value in series [1] (conventional treatment by medical practitioner) was “scarring”. For the same compound, the “outcome of cancer / cancerous tissue” value in series [1] (person) is reported as “cancerous tissue reappeared within a few months of treatment”. On to `C=C1CC[C@H](O)C/C1=C/C=C1\CCC[C@]2(C)[C@@H]([C@H](C)CCCC(C)C)CC[C@@H]12` [Cholecalciferol], for which the results for the “ozone output / amount of ozone released from ozonated formulations” value in series [2] and in series [2] (listed as cholecalciferol) were “increased the ozone output” and “increased significantly”, respectively. For `C[C@]12CCC(=O)C=C1CC[C@@H]1[C@@H]2C(=O)C[C@@]2(C)[C@H]1CC[C@]2(O)C(=O)CO` [1% cortisone, cortisone], in series [3], the “effect on rosacea inflammation” value is on record as “controlled most inflammation outbreaks”.

The record behind these values is patent publication US20080199489A1, “SKIN TREATMENT FORMULATIONS AND METHOD” (priority 2007, published 2008).
